Consider 3 compounds from ChEMBL document CHEMBL4354883, “Design, Synthesis, and Biological Evaluation of HSP90 Inhibitor-SN38 Conjugates for Targeted Drug Accumulation” (J Med Chem, 2020).

The source made the active and inactive calls. Some results are limits rather than exact numbers.

As a reminder, the half-life is the time needed for the level to fall by half in the phase considered. Higher therefore signals slow loss. Usually IC50 stands for the midpoint of a concentration-inhibition curve. As usually defined, the clearance is a measure of how efficiently the substance is removed, as volume per time. Broadly, the AUC(0-inf) is the area under the concentration-time curve extrapolated to infinity. Lower therefore signals less exposure.

Data set [1] can be described thus: Half life of compound in PBS buffer at pH 6.0 at 50 uM by HPLC analysis. The class given is physicochemical.
Data set [2] can be described thus: Half life of compound in PBS buffer at pH 7.4 at 50 uM by HPLC analysis. It is filed as physicochemical.
A short description of data set [3]: Half life in human plasma at 25 uM by HPLC analysis. It is filed as ADME, cell-free.
The nature of data set [4]: Half life in mouse plasma at 25 uM by HPLC analysis. It is filed as ADME, cell-free.
Data set [5] addresses Heat shock protein HSP 90-alpha (Homo sapiens, UniProt P07900). The data set is described as follows: biochemical.
Description: Inhibition of recombinant human full length HSP90 alpha expressed in Escherichia coli cells after 1 hr by fluorescence polarization assay
The nature of data set [6]: Apparent volume of distribution at steady state in BALB/c mouse at 50 mg/kg, iv after 5 to 24 hrs by LC-MS/MS analysis. The class given is ADME, organism-based. The settings on record: in vivo, read-out: Vdss(app).
For data set [7], the target named is T1, DNA topoisomerase 1 (Homo sapiens) (UniProt P11387).
T1 sequence (whole entry): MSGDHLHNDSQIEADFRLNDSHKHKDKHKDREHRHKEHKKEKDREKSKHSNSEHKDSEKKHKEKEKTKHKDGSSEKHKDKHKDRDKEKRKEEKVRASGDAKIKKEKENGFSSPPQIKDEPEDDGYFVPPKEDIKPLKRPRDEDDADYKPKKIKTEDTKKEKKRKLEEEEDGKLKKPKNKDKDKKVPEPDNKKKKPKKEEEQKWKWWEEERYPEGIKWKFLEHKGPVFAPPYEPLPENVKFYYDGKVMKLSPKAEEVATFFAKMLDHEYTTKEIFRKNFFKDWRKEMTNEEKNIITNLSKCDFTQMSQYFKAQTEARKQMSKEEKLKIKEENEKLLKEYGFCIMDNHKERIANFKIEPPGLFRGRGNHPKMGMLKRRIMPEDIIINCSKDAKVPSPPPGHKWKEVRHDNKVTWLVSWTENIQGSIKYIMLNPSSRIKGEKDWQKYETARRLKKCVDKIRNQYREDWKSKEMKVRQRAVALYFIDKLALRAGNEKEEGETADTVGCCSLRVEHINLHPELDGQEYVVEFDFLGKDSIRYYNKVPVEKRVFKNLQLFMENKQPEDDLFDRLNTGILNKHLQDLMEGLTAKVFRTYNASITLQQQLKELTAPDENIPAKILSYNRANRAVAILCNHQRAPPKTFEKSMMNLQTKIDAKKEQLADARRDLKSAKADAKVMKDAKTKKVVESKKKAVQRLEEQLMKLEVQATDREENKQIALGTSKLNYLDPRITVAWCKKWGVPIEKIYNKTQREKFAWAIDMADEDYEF
The data set is described as follows: Inhibition of topoisomerase 1 in human HCT116 cells assessed as increase in phosphorylated KAP1 expression after 24 hrs by Western blot analysis. It is filed as cell-based.

Data set [8] can be described thus: Intrinsic clearance in human liver microsomes at 1 uM preincubated for 5 mins followed by NADPH addition and measured up to 360 mins by LC-MS/MS analysis. The class given is ADME, Microsome. Particulars: 6 h. For orientation: Microsomes from liver hold many membrane-bound enzymes, among them those of drug oxidation.
The nature of data set [9]: Drug uptake in human A549 cells assessed as eHSP90-mediated total cellular drug internalization at 5 uM after 12 hrs by LC-MS/MS analysis. It is filed as ADME, cell-based. The settings on record: a549, 12 h.
The nature of data set [10]: Drug uptake in human A549 cells assessed as blue shift in absorption spectrum at 5 uM by UV-visible absorption spectral analysis. It is filed as ADME, cell-based. Particulars: a549, 5 µM.
Data set [11] can be described thus: Drug uptake in human A549 cells assessed as endocytosis-mediated total cellular drug internalization at 5 uM after 12 hrs by LC-MS/MS analysis relative to SN38. It is filed as ADME, cell-based. The settings on record: a549, 12 h.
Data set [12] has as its target T1, DNA topoisomerase 1 (Homo sapiens). Put plainly: Inhibition of topoisomerase 1 in human A549 cells assessed as increase in phosphorylated KAP1 expression after 24 hrs by Western blot analysis. It is filed as cell-based.
Data set [13] relates to HCT-116. The data set is described as follows: Induction of cell cycle arrest in human HCT116 cells assessed as accumulation at G2/M phase after 24 hrs by RNase A/PI-staining based flow cytometric analysis. The class given is functional. On the technique in general: Flow cytometry measures light scatter and fluorescence of single cells or particles in a stream.
Data set [14] deals with HCT-116. Put plainly: Antiproliferative activity against human HCT116 cells assessed as reduction in cell viability after 72 hrs by SRB assay. The class given is functional, cell-based. The settings on record: HCT-116, 72 h. A general note: Sulforhodamine B stains cellular protein and so reports cell mass.
For data set [15], the system named is CAPAN-1. The data set is described as follows: Antiproliferative activity against human Capan1 cells assessed as reduction in cell viability after 72 hrs by SRB assay. It is filed as functional, cell-based. The settings on record: CAPAN-1, 72 h.
Data set [16] can be described thus: Drug uptake in human A549 cells assessed as maximum emission peaks at 430 nm at 5 uM by fluorescence emission spectral analysis. It is filed as ADME, cell-based. The settings on record: a549, 5 µM.
Data set [17] in a line: Half life in BALB/c mouse at 50 mg/kg, iv after 5 to 24 hrs by LC-MS/MS analysis. The settings on record: in vivo. It is filed as ADME, organism-based.
Data set [18] concerns the target T2, Heat shock protein HSP90 (Homo sapiens, UniProt P07900+P08238). Put plainly: Inhibition of HSP90 in human HCT116 cells assessed as upregulation of HSP70 expression at 0.04 to 5 uM after 24 hrs by Western blot analysis. It is filed as cell-based.
Data set [19] deals with A549. The data set is described as follows: Induction of cell cycle arrest in human A549 cells assessed as accumulation at G2/M phase after 24 hrs by RNase A/PI-staining based flow cytometric analysis. The class given is functional.
A short description of data set [20]: Drug uptake in human A549 cells assessed as endocytosis-mediated total cellular drug internalization at 5 uM after 12 hrs by LC-MS/MS analysis relative to irinotecan. The settings on record: a549, 12 h. It is filed as ADME, cell-based.
Data set [21] in a line: Toxicity in mouse xenografted with human HCT116 cells assessed as body weight loss at 50 mg/kg, iv for 5 consecutive days per week and measured every 3 to 4 days up to 14 days relative to control. The class given is organism-based. Particulars: in vivo.
In data set [22] the test system is A549. Put plainly: Ratio of prodrug release in human A549 cells assessed as increase in 7-ethyl-10-hydroxycamptothecin level at 5 uM after 12 hrs by LC-MS/MS analysis to prodrug release in human A549 cells assessed as increase in 7-ethyl-10-hydroxycamptothecin level at 5 uM after 1 hr by LC-MS/MS analysis. It is filed as ADME, cell-based. The settings on record: a549, 5 µM.

The test system of data set [23] is HCT-116. Put plainly: Downregulation of TOP1 expression in human HCT116 cells after 24 hrs by Western blot analysis. It is filed as functional, cell-based.
Data set [24] concerns MIA PaCa-2. The data set is described as follows: Antiproliferative activity against human MIAPaCa2 cells assessed as reduction in cell viability after 72 hrs by SRB assay. The class given is functional, cell-based. The settings on record: MIA PaCa-2, 72 h.
The target in data set [25] is T2, Heat shock protein HSP90. The data set is described as follows: Inhibition of HSP90 in human A549 cells assessed as upregulation of HSP70 expression at 0.04 to 5 uM after 24 hrs by Western blot analysis. It is filed as cell-based.
The nature of data set [26]: Clearance in BALB/c mouse at 50 mg/kg, iv after 5 to 24 hrs by LC-MS/MS analysis. The class given is ADME, organism-based. Particulars: in vivo.
Data set [27] is described as follows: Half life in human liver microsomes at 1 uM preincubated for 5 mins followed by NADPH addition and measured up to 360 mins by LC-MS/MS analysis. It is filed as ADME, Microsome.
The test system of data set [28] is A549. The data set is described as follows: Antiproliferative activity against human A549 cells assessed as reduction in cell viability after 72 hrs by SRB assay. The settings on record: A549, 72 h. The class given is functional, cell-based.
For data set [29], the target named is T2, Heat shock protein HSP90. Put plainly: Inhibition of HSP90 in human HCT116 cells assessed as downregulation of AKT protein expression after 24 hrs by Western blot analysis. It is filed as cell-based.
Data set [30] concerns the target T2, Heat shock protein HSP90. Put plainly: Inhibition of HSP90 in human A549 cells assessed as downregulation of AKT protein expression after 24 hrs by Western blot analysis. The class given is cell-based.
For data set [31], the system named is CAPAN-1. Put plainly: Induction of cell cycle arrest in human Capan1 cells assessed as accumulation at G2/M phase after 24 hrs by RNase A/PI-staining based flow cytometric analysis. It is filed as functional.
The nature of data set [32]: Metabolic stability in human liver microsomes assessed as compound remaining at 1 uM preincubated for 5 mins followed by NADPH addition and measured after 60 mins by LC-MS/MS analysis. The class given is ADME, Microsome. The settings on record: read-out: Stability.
The nature of data set [33]: Drug uptake in human A549 cells assessed as blue fluorescence at 5 uM after 12 hrs by confocal laser scanning microscopic analysis. It is filed as ADME, cell-based. The settings on record: a549, 12 h.
Data set [34] concerns A549. The data set is described as follows: Downregulation of TOP1 expression in human A549 cells after 24 hrs by Western blot analysis. It is filed as functional, cell-based.
For data set [35], the system named is L02. The data set is described as follows: Cytotoxicity agains human HL7702 cells assessed as reduction in cell viability after 72 hrs by SRB assay. It is filed as cell-based. Particulars: L02, 72 h.
Data set [36] in a line: AUC(0 to infinity) in BALB/c mouse at 50 mg/kg, iv after 5 to 24 hrs by LC-MS/MS analysis. It is filed as ADME, organism-based. Also noted: dose 50 mg/kg, route intravenous, time infinity. Particulars: in vivo.
Data set [37] addresses T2, Heat shock protein HSP90. Put plainly: Drug uptake in human A549 cells assessed as eHSP90-mediated drug internalization by measuring blue fluorescence in PBS solution at 5 uM after 1 to 12 hrs by confocal laser scanning microscopic analysis. Particulars: a549, 5 µM, TDE = time-dependent effect. The class given is ADME, cell-based.

Take `CCc1c2c(nc3ccc(O)cc13)-c1cc3c(c(=O)n1C2)COC(=O)[C@@]3(CC)OC(=O)CNC(=O)CNc1cc(-n2nc(C(F)(F)F)c3c2CC(C)(C)CC3=O)ccc1C(N)=O`: the half-life at 50 µM in data set [1] is above 24 h; in [2] it was 7 h. Further, the half-life at 25 µM in data set [3] was 13 h; in [4] it was 10 h. Further, 1510 nM corresponded to half-maximal inhibition in data set [5] (IC50).

With `CC1(C)CC(=O)c2c(C(F)(F)F)nn(-c3ccc(C(N)=O)c(N[C@H]4CC[C@H](OC(=O)CN)CC4)c3)c2C1` [SNX 5422], the IC50 in data set [5] was found to be 38 nM.

Regarding `CCc1c2c(nc3ccc(O)cc13)-c1cc3c(c(=O)n1C2)COC(=O)[C@@]3(CC)OC(=O)CCNC(=O)c1noc(-c2cc(C(C)C)c(O)cc2O)c1-c1ccc(CN2CCOCC2)cc1`, in [6], the Vd came to 0.1 L/kg. For the same compound, the inhibition result in data set [7], in data set [12], in data set [23], in data set [29] and in data set [30] was “Dose-dependent effect” throughout. In addition, the half-life at 50 µM in [1] was above 24 h; in [2], 14 h. In data set [8], this compound returned a CLH of 5.3 mL/min/kg. Also, the Drug uptake entry in data set [9] is given as “Active”; in [10], “Active”; in [16] it was “Active”; in [33], “Active”; in data set [37], “Tde”. In addition, the fold change (FC) is 1.6 to 1.9 in data set [11] and 2.8 to 3.8 in [20]. Further, the Activity result in data set [13] is “Dose-dependent effect”; in data set [19] it was “Dose-dependent effect”; in [21], below 20%; in data set [31] it was “Dose-dependent effect”. The IC50 in data set [14] was 83 nM; in data set [15] it was 206 nM; in [24], 205 nM; in [28] it was 324 nM; in data set [35] it was 7890 nM; in data set [5], 70 nM. Moreover, the half-life in [17] is 1.51 h. The inhibition entry in data set [18] and in data set [25] was “Active” each time. In data set [22], the Ratio came to 4.3. In addition, the half-life at 25 µM in data set [3] was above 24 h; in data set [4] it was 17 h. Further, the clearance in [26] was 5.51 mL/min/kg. For the same compound, the half-life at 1 µM in data set [27] was 2.4 h. The remaining at 1 h, 1 µM in [32] was 75%. Further, the TOP1 downregulation entry in [34] was “Dose-dependent effect”. Also, the AUC(0-inf) in [36] worked out at 151 µg·h/mL.
